Assays:
[1] = biological target: T1, Human GPR120 short form (short splice variant, NM_001195755.1) (Homo sapiens, UniProt Q5NUL3); assay: Human GPR120 Calcium Flux Assay; type: cell-based; conditions: HEK-293 cells, 4200 cells/well, read-out: Human GPR120 Calcium Flux Assay Procedure B EC50
T1 construct: expressed in transfected cells; host or cells: HEK293
T1 sequence (Q5NUL3 1-361): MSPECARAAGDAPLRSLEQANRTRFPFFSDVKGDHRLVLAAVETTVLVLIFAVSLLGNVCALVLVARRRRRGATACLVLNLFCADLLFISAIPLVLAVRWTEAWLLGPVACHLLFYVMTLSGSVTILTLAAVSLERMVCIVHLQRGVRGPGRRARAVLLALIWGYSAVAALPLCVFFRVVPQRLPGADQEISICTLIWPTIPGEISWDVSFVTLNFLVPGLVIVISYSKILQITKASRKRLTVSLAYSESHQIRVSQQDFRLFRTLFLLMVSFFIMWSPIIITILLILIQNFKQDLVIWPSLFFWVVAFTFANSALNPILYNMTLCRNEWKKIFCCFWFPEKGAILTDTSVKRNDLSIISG
Description: In Vitro Assay: Human GPR120 in Calcium Flux Assay
This in vitro assay serves to assess test compound agonist activity against the short splice variant (SVS with Accession number NM_001195755.1 confirmed by sequencing data) of the GPR120 receptor. The Human Short splice variant #2 (NM_001195755.1) is missing an in-frame coding exon compared to variant 1 (the Human Long splice variant NM_181745.3), resulting in a shorter isoform (GPR120-S) lacking a 16 aa protein segment compared to isoform GPR120-L. The assay platform utilizes HEK-293 cells stably transfected to express the Human GPR120 short form. These cells are first loaded with the Ca^+2 sensitive dye, Fluo-4 NW. Upon stimulation, intracellular released Ca^+2 can bind to the dye and alter its fluorescence intensity. This increase in fluorescence signal, and thus the flux in intracellular [Ca^2+], is detected and quantitated by fluorescence imaging using a FLIPR reader. The effect of the agonist is measured as a function of concentration and used to calculate an EC50 based upon a response curve. […]
In this procedure 4200 cells/well were employed.
A Human GPR120 clone (Genbank accession number NM_001195755.1) was placed into the pcDNA3.1 mammalian expression vector carrying the neomycin resistance gene. A stable mammalian cell was generated by placing the above clone into a HEK293 background. Clonal cells responding to long chain fatty acids had expression levels of GPR120 confirmed by RT-qPCR. Human HEK-GPR120 cells were cultured in Dulbecco's Modified Eagle's Medium (DMEM)/F12 medium supplemented with 10% fetal bovine serum (FBS), 1% L-Glutamine and 1% penicillin/streptomycin and 0.5 mg/ml G-418. Cells were split 2 times a week to keep the cells in the log-phase growth.
In preparation for the assay, HEK cells stably transfected with Human GPR120 (2.5K cells per well in 25 uL growth medium) were seeded into 384-well plates and then incubated overnight (37° C., 5% CO2). The next day, the media was changed to 20 μL assay buffer and the cell starved for 1 h at 37° C. The dye loading solution (2× dye) was prepared using 10 mL assay buffer, 100 μL of 250 mM probenecid, 1 bottle of Component A, and 20 μl of dye in DMSO. Twenty μL of the 2× dye loading buffer was then added to each well. The plates were incubated at 37° C. for 30 min, then at room temperature for an additional 15 minutes, before performing the assay on FLIPR.
The assay was performed on a FLIPR plate reader using the following parameters. Baseline was read for 10 seconds at 1 sec intervals. The program was set to transfer 10 μL of ligand from compound plate to cell plate after baseline reading. Aspiration was executed at: 10 μL/sec speed, 4.6 μL height; Dispensing was executed at: 30 μL/sec speed, 45 μL height. After compound addition, each well was read for 300 sec, with measurements collected at 1 sec intervals.
The kinetic data from the FLIPR was based upon a 5 minute window for data collection. The fluorescence of each sample well was used for individual calculations of a normalized RFU value, which was defined as maximum response minus the minimum response. The normalized fluorescence reading (RFU) was calculated as follows:
The data were fitted to a sigmoidal dose-response curve with a variable Hill slope (<2) using nonlinear regression with GraphPad Prism 5.0 to calculate the EC50 values. The Fitting Equation was: Y=Bottom+(Top−Bottom)/(1+10^((Log EC50−X)*HillSlope)), where X is the log of the concentration and Y is the response.

[2] = biological target: GPR40 (UniProt O14842); assay: GPR40 Calcium Flux Assay; type: cell-based; conditions: transfected HEK293 cells stably expressing human or rat GPR40; species not given
Protocol: Biological Example 3: In Vitro Assay
Compounds were tested in a calcium flux assay using transfected HEK293 cells stably expressing either human GPR40 or rat GPR40. Human GPR40 expressing cells were cultured in DMEM-High Glucose media supplemented with 10% fetal bovine serum, 1×L-Glutamine, 1× Penicillin/Streptomycin and 500 μg/mL G418. Rat GPR40 expressing cells were cultured in DMEM-High Glucose media supplemented with 10% fetal bovine serum and 1 μg/mL puromycin. Cells were plated into poly-D-lysine coated 384-well plates and cultured overnight in a 37° C. humidified tissue culture incubator under 5% CO2/90% O2 atmosphere.
On the day of the experiment, the culture media was replaced with assay buffer (HBSS, 20 mM HEPES, 0.1% BSA) and the cells incubated at 37° C. for 1 h. Calcium-sensitive fluorescent dye (Fluo 8 No-Wash Calcium Dye, ABD Bioquest) was then added and the cells incubated for another 30 min at 37° C. followed by 15 min at room temperature while protected from the light. The cell plate and a plate of diluted compounds of Formula (I) were loaded into a fluorescent plate reader that added compounds onto the cells while measuring the fluorescence intensity of each well. The plate reader recorded fluorescence intensity at 1 second intervals for 8 min and provided the data for analysis in an Excel format. EC50 values were calculated using Prism (GraphPad) software.

| SMILES | EC50 [1] [µM] | EC50 [2] [µM] |
| --- | --- | --- |
| CC(C)C1=C(COc2ccc(CCC(=O)O)c(C(F)(F)F)c2)COCC1 [compound 735] | 2.19 | 0.492 |
| Cc1c(CCC(=O)O)ccc(OCC2=C(C3CCC3)CCOC2)c1C [compound 724] | 0.275 | > 10 |
| Cc1c(CCC(=O)O)ccc(OCC2=C(c3ccccc3F)CCOC2)c1C [compound 651] | 0.202 |  |
| Cc1cc(C2=C(COc3ccc(CCC(=O)O)c(C)c3C)COCC2)ccc1F [compound 661] | 0.527 |  |
| C=C(C1=C(COc2ccc(CCC(=O)O)c(C(F)(F)F)c2)COCC1)c1ccc(F)cc1 [compound 703] | > 5 | 0.068 |
| Cc1c(CCC(=O)O)ccc(OCC2=C(c3ccc(Cl)cc3F)CCOC2)c1C [compound 667] | 0.115 |  |
| C=C(C1=C(COc2ccc(CCC(=O)O)c(C(F)(F)F)c2)COCC1)c1ccccc1 [compound 687] | > 5 | 0.054 |
| Cc1ccc(C2=C(COc3ccc(CCC(=O)O)c(C)c3C)COCC2)cc1 [compound 655] | 0.094 |  |
| C=C(C1=C(COc2ccc(CCC(=O)O)c(C(F)(F)F)c2)COCC1)c1ccccc1Cl [compound 706] | > 5 | 0.038 |
| CC(C)CC1=C(COc2ccc(CCC(=O)O)c(C(F)(F)F)c2)COCC1 [compound 717] | 1.3 | 0.133 |
| COc1cc(Cl)ccc1C1=C(COc2ccc(CCC(=O)O)c(C)c2C)COCC1 [compound 662] | 2.2 |  |
| Cc1ccc(C2=C(COc3ccc(CCC(=O)O)c(C)c3C)COCC2)cc1F [compound 659] | 0.066 | > 10 |
| O=C(O)CCc1ccc(OCC2=C(C3CCCCC3)CCOC2)cc1C(F)(F)F [compound 729] | 2.68 | 0.847 |
| Cc1cccc(C)c1C1=C(COc2ccc(CCC(=O)O)c(Cl)c2)COCC1 [compound 669] | > 5 |  |
| Cc1ccc(CC2=C(COc3ccc(CCC(=O)O)cc3)COCC2)cc1 [compound 691] | 2.4 | 3.62 |
| C=C(C1=C(COc2ccc(CCC(=O)O)cc2)COCC1)c1ccccc1 [compound 699] | > 5 | 1.74 |
| O=C(O)CCc1ccc(OCC2=C(C3CCCC3)CCOC2)cc1 [compound 738] | 0.927 | 2.68 |
| O=C(O)CCc1cc(F)c(OCC2=C(Cc3ccccc3)CCOC2)c(F)c1 [compound 714] | 1.93 | > 10 |
| CC(C)Oc1ccccc1C1=C(COc2ccc(CCC(=O)O)c(C(F)(F)F)c2)COCC1 [compound 677] | > 5 |  |
| O=C(O)CCc1ccc(OCC2=C(C3CCCC3)CCOC2)cc1Cl [compound 727] | 1.6 | 0.386 |
| Cc1cc(Cl)ccc1C1=C(COc2ccc(CCC(=O)O)c(C(F)(F)F)c2)COCC1 [compound 682] | > 5 |  |
| O=C(O)CCc1ccc(OCC2=C(Cc3ccc(Cl)cc3)CCOC2)cc1Cl [compound 709] | > 5 | 2.3 |
| O=C(O)CCc1ccc(OCC2=C(c3ccc(OC(F)(F)F)cc3)CCOC2)cc1C(F)(F)F [compound 686] | > 5 | 0.74 |
| O=C(O)CCc1ccc(OCC2=C(Cc3ccccc3)CCOC2)cc1C(F)(F)F [compound 678] | > 5 |  |

| SMILES | EC50 [1] [µM] | EC50 [2] [µM] |
| --- | --- | --- |
| COc1cccc(C2=C(COc3ccc(CCC(=O)O)c(C)c3C)COCC2)c1 [compound 656] | 0.868 |  |
| O=C(O)CCc1ccc(OCC2=C(CC3CCCCC3)CCOC2)cc1C(F)(F)F [compound 718] | > 5 | 1.43 |
| Cc1ccc(C2=C(COc3ccc(CCC(=O)O)cc3)CCOCC2)cc1F [compound 783] | 1.36 | 7.88 |
| Cc1cccc(C)c1C1=C(COc2ccc(CCC(=O)O)c(C(F)(F)F)c2)COCC1 [compound 671] | > 5 |  |
| CCC1=C(COc2ccc(CCC(=O)O)c(C(F)(F)F)c2)COCC1 [compound 716] | 1.84 | 0.571 |
| Cc1ccc(CC2=C(COc3ccc(CCC(=O)O)c(C(F)(F)F)c3)COCC2)cc1 [compound 692] | > 5 | 0.324 |
| Cc1cc(CCC(=O)O)ccc1OCC1=C(c2ccc(F)cc2)C[S+]([O-])C1 (stereo not drawn) [compound 627] | > 5 |  |
| COc1ccccc1C1=C(COc2ccc(CCC(=O)O)c(C(F)(F)F)c2)COCC1 [compound 676] | > 5 |  |
| Cc1c(CCC(=O)O)ccc(OCC2=C(c3ccc(F)cc3F)CCOC2)c1C [compound 660] | 0.149 |  |
| Cc1c(CCC(=O)O)ccc(OCC2=C(c3cccnc3)CCOC2)c1C [compound 654] | > 5 |  |
| Cc1ccc(C2=C(COc3ccc(CCC(=O)O)c(C(F)(F)F)c3)COCC2)cc1 [compound 668] | 0.498 |  |
| Cc1cc(CCC(=O)O)ccc1OCC1=C(c2ccccc2)COC1 [compound 630] | 0.229 |  |
| Cc1ccc(C2=C(COc3cc(C(F)(F)F)c(CCC(=O)O)c(C(F)(F)F)c3)COCC2)cc1 [compound 666] | 2.75 |  |
| O=C(O)CCc1ccc(OCC2=C(c3ccc(Cl)c(Cl)c3)CCOC2)cc1C(F)(F)F [compound 680] | 2.63 |  |
| Cc1cc(C)c(C2=C(COc3ccc(CCC(=O)O)c(C(F)(F)F)c3)COCC2)cc1C [compound 681] | > 5 |  |
| Cc1ccc(C2=C(COc3ccc(CCC(=O)O)c(C(F)F)c3)COCC2)cc1 [compound 665] | 0.832 |  |
| O=C(O)CCc1ccc(OCC2=C(c3ccccc3OC(F)(F)F)CCOC2)cc1C(F)(F)F [compound 674] | > 5 |  |
| COc1cc(C2=C(COc3ccc(CCC(=O)O)c(C)c3C)COCC2)ccc1Cl [compound 664] | > 5 |  |
| CC1(C)CCC=C1C1=C(COc2ccc(CCC(=O)O)c(C(F)(F)F)c2)COCC1 [compound 670] | > 5 |  |
| Cc1ccc(C2=C(COc3ccc(CCC(=O)O)c(C(F)(F)F)c3)COCC2)cc1C [compound 683] | 1.06 |  |
| Cc1c(CCC(=O)O)ccc(OCC2=C(c3ccc(Cl)c(F)c3)CCOC2)c1C [compound 663] | 0.17 |  |
| Cc1cc(C2=C(COc3ccc(CCC(=O)O)c(C(F)(F)F)c3)COCC2)ccc1Cl [compound 679] | 1.92 |  |
| O=C(O)CCc1ccc(OCC2=C(c3cccc4c3OC(F)(F)O4)CCOC2)cc1C(F)(F)F [compound 673] | > 5 |  |
